{"source": "paper PMC11766267", "about": "(International Journal of Molecular Sciences, 2025)", "key": {"[1]": {"tested_on": "MCF-7", "assay": "In vitro anti-estrogenic activity assay, MCF-7"}, "[2]": {"tested_on": "MCF-7a", "assay": "In vitro anti-estrogenic activity assay, MCF-7a"}, "[3]": {"assay": "MTT cytotoxicity assay, normal cell line WI-38", "format": "cell-based, human", "conditions": "human, WI-38 cells (normal human lung fibroblasts), normal (non-cancer) cell line, 24 h treatment", "experimental": "(§1) Subsequently, 100 µL of dimethyl sulfoxide was introduced to dissolve the insoluble formazan."}, "[4]": {"tested_on": "MCF-7", "assay": "MTT cytotoxicity assay, MCF-7", "format": "cell-based, human", "conditions": "24 h treatment, mean ± SD of triplicate", "experimental": "as §1"}, "[5]": {"tested_on": "HCT-116, MDA-MB-231, HeLa, and MCF-7", "assay": "MTT cytotoxicity assay, ranges stated over several cell lines", "format": "cell-based", "conditions": "Homo sapiens, HCT-116, MDA-MB-231, HeLa, MCF-7; range; read-out: IC50 values, range over the cancer cell lines tested", "experimental": "as §1"}, "[6]": {"tested_on": "HCT-116", "assay": "MTT cytotoxicity assay, HCT-116", "format": "cell-based", "conditions": "Homo sapiens, 24 h treatment, mean ± SD of triplicate", "experimental": "as §1"}, "[7]": {"tested_on": "HeLa", "assay": "MTT cytotoxicity assay, HeLa", "format": "cell-based", "conditions": "Homo sapiens, 24 h treatment, mean ± SD of triplicate", "experimental": "as §1"}, "[8]": {"tested_on": "MDA-MB-231", "assay": "MTT cytotoxicity assay, MDA-MB-231", "format": "cell-based", "conditions": "Homo sapiens, 24 h treatment, mean ± SD of triplicate", "experimental": "as §1"}, "[9]": {"conditions": "cell count relative to the control (17β-E2)"}}, "data": [{"compound": "C[C@]12CC[C@@H]3c4ccc(O)cc4CC[C@H]3[C@@H]1CC[C@@H]2O", "note": "[Compound 17β-E2, 17β estradiol, reference compound]", "values": [{"measurement": "Cell Proliferation MCF-7 %", "setting": "[1]; [9]", "value": 100, "unit": "%"}, {"measurement": "Cell Proliferation MCF-7 Cell Count", "setting": "[1]; mean ± SD of triplicate", "value": "18,524 ± 659"}, {"measurement": "Cell Proliferation MCF-7a %", "setting": "[2]; [9]", "value": 100, "unit": "%"}, {"measurement": "Cell Proliferation MCF-7a Cell Count", "setting": "[2]; mean ± SD of triplicate", "value": "20,776 ± 600"}]}, {"compound": "COc1ccc(C(=O)/C=C/c2ccc(OCc3ccccc3)cc2)cc1", "note": "[Compound 4s, (E)-3-(4-(Benzyloxy)phenyl)-1-(4-methoxyphenyl)prop-2-en-1-one]", "values": [{"measurement": "IC50 at 24 h", "setting": "[3]", "value": "22.3 ± 1.6", "unit": "µM"}, {"measurement": "IC50", "setting": "[4]; Homo sapiens, MCF7, 24 h", "value": "64.2 ± 3.5", "unit": "µM"}, {"measurement": "IC50", "setting": "[5]", "value": "61.9 to 91.7", "unit": "µM"}, {"measurement": "IC50", "setting": "[6]", "value": "73.5 ± 3.9", "unit": "µM"}, {"measurement": "IC50", "setting": "[7]", "value": "87 ± 4.3", "unit": "µM"}, {"measurement": "IC50", "setting": "[8]", "value": "82.4 ± 4.1", "unit": "µM"}]}, {"compound": "COc1ccc(C(=O)/C=C/c2ccccc2)cc1", "note": "[Compound 4m, (E)-1-(4-Methoxyphenyl)-3-phenylprop-2-en-1-one]", "values": [{"measurement": "IC50 at 24 h", "setting": "[3]", "value": "87.6 ± 4.6", "unit": "µM"}, {"measurement": "IC50", "setting": "[4]; Homo sapiens, MCF7, 24 h", "value": "33 ± 2", "unit": "µM"}, {"measurement": "IC50", "setting": "[5]", "value": "23.5 to 74.5", "unit": "µM"}, {"measurement": "IC50", "setting": "[6]", "value": "59.6 ± 3.5", "unit": "µM"}, {"measurement": "IC50", "setting": "[7]", "value": "63.6 ± 3.7", "unit": "µM"}, {"measurement": "IC50", "setting": "[8]", "value": "45.9 ± 2.6", "unit": "µM"}]}, {"compound": "COc1ccc(/C=C/C(=O)c2cccc(OC)c2)cc1", "note": "[Compound 4l, (E)-1-(3-Methoxyphenyl)-3-(4-methoxyphenyl) prop-2-en-1-one]", "values": [{"measurement": "IC50 at 24 h", "setting": "[3]", "value": "16.2 ± 1.3", "unit": "µM"}, {"measurement": "IC50", "setting": "[4]; Homo sapiens, MCF7, 24 h", "value": "75.4 ± 3.8", "unit": "µM"}, {"measurement": "IC50", "setting": "[5]", "value": "61.9 to 91.7", "unit": "µM"}, {"measurement": "IC50", "setting": "[6]", "value": "84 ± 4.2", "unit": "µM"}, {"measurement": "IC50", "setting": "[7]", "value": "88.8 ± 4.6", "unit": "µM"}, {"measurement": "IC50", "setting": "[8]", "value": "91.7 ± 4.5", "unit": "µM"}]}, {"compound": "COc1cccc(C(=O)/C=C/c2cccc(OCc3ccccc3)c2)c1", "note": "[Compound 4p, (E)-3-(3-(Benzyloxy)phenyl)-1-(3-methoxyphenyl)prop-2-en-1-one]", "values": [{"measurement": "IC50 at 24 h", "setting": "[3]", "value": "92.1 ± 4.9", "unit": "µM"}, {"measurement": "IC50", "setting": "[4]; Homo sapiens, MCF7, 24 h", "value": "57.1 ± 3.2", "unit": "µM"}, {"measurement": "IC50", "setting": "[5]", "value": "23.5 to 74.5", "unit": "µM"}, {"measurement": "IC50", "setting": "[6]", "value": "39.8 ± 2.4", "unit": "µM"}, {"measurement": "IC50", "setting": "[7]", "value": "45.2 ± 2.4", "unit": "µM"}, {"measurement": "IC50", "setting": "[8]", "value": "68.4 ± 3.7", "unit": "µM"}]}, {"compound": "CCOc1ccc(/C=C/C(=O)c2ccccc2)cc1", "note": "[Compound 4f, (E)-3-(4-Ethoxyphenyl)-1-phenylprop-2-en-1-one]", "values": [{"measurement": "IC50 at 24 h", "setting": "[3]", "value": "64.7 ± 3.6", "unit": "µM"}, {"measurement": "IC50", "setting": "[4]; Homo sapiens, MCF7, 24 h", "value": "35.3 ± 2.1", "unit": "µM"}, {"measurement": "IC50", "setting": "[5]", "value": "23.5 to 74.5", "unit": "µM"}, {"measurement": "IC50", "setting": "[6]", "value": "57.6 ± 3.3", "unit": "µM"}, {"measurement": "IC50", "setting": "[7]", "value": "49.6 ± 2.8", "unit": "µM"}, {"measurement": "IC50", "setting": "[8]", "value": "46.1 ± 2.4", "unit": "µM"}]}, {"compound": "O=C(/C=C/c1ccccc1OCc1ccccc1)c1ccccc1", "note": "[Compound 4g, (E)-3-(2-(Benzyloxy)phenyl)-1-phenylprop-2-en-1-one]", "values": [{"measurement": "IC50 at 24 h", "setting": "[3]", "value": "27.8 ± 1.9", "unit": "µM"}, {"measurement": "IC50", "setting": "[4]; Homo sapiens, MCF7, 24 h", "value": "48.4 ± 2.6", "unit": "µM"}, {"measurement": "IC50", "setting": "[5]", "value": "23.5 to 74.5", "unit": "µM"}, {"measurement": "IC50", "setting": "[6]", "value": "54 ± 3", "unit": "µM"}, {"measurement": "IC50", "setting": "[7]", "value": "36.5 ± 2.4", "unit": "µM"}, {"measurement": "IC50", "setting": "[8]", "value": "59.2 ± 3.5", "unit": "µM"}]}, {"compound": "COc1cccc(C(=O)/C=C/c2ccc(Cl)cc2)c1", "note": "[Compound 4k, (E)-3-(4-Chlorophenyl)-1-(3-methoxyphenyl)prop-2-en-1-one]", "values": [{"measurement": "IC50 at 24 h", "setting": "[3]", "value": "> 100", "unit": "µM"}, {"measurement": "IC50", "setting": "[4]; Homo sapiens, MCF7, 24 h", "value": "> 100", "unit": "µM"}, {"measurement": "IC50", "setting": "[6]", "value": "> 100", "unit": "µM"}, {"measurement": "IC50", "setting": "[7]", "value": "> 100", "unit": "µM"}, {"measurement": "IC50", "setting": "[8]", "value": "> 100", "unit": "µM"}]}, {"compound": "COc1ccc(C(=O)/C=C/c2ccc(Cl)cc2)cc1", "note": "[Compound 4n, (E)-3-(4-Chlorophenyl)-1-(4-methoxyphenyl)prop-2-en-1-one]", "values": [{"measurement": "IC50 at 24 h", "setting": "[3]", "value": "61.5 ± 3.4", "unit": "µM"}, {"measurement": "IC50", "setting": "[4]; Homo sapiens, MCF7, 24 h", "value": "37 ± 2.3", "unit": "µM"}, {"measurement": "IC50", "setting": "[5]", "value": "23.5 to 74.5", "unit": "µM"}, {"measurement": "IC50", "setting": "[6]", "value": "66.1 ± 3.8", "unit": "µM"}, {"measurement": "IC50", "setting": "[7]", "value": "74.5 ± 3.9", "unit": "µM"}, {"measurement": "IC50", "setting": "[8]", "value": "48.6 ± 2.8", "unit": "µM"}]}, {"compound": "COc1ccc(C(=O)/C=C/c2cccc(OCc3ccccc3)c2)cc1", "note": "[Compound 4r, (E)-3-(3-(Benzyloxy)phenyl)-1-(4-methoxyphenyl)prop-2-en-1-one]", "values": [{"measurement": "IC50 at 24 h", "setting": "[3]", "value": "> 100", "unit": "µM"}, {"measurement": "IC50", "setting": "[4]; Homo sapiens, MCF7, 24 h", "value": "39.3 ± 2.4", "unit": "µM"}, {"measurement": "IC50", "setting": "[5]", "value": "23.5 to 74.5", "unit": "µM"}, {"measurement": "IC50", "setting": "[6]", "value": "62.6 ± 3.7", "unit": "µM"}, {"measurement": "IC50", "setting": "[7]", "value": "57 ± 3.2", "unit": "µM"}, {"measurement": "IC50", "setting": "[8]", "value": "51.8 ± 2.9", "unit": "µM"}]}, {"compound": "COc1ccc(/C=C/C(=O)c2ccc(OC)cc2)cc1", "note": "[Compound 4o, (E)-1,3-bis(4-Methoxyphenyl)prop-2-en-1-one]", "values": [{"measurement": "IC50 at 24 h", "setting": "[3]", "value": "24.2 ± 1.7", "unit": "µM"}, {"measurement": "IC50", "setting": "[4]; Homo sapiens, MCF7, 24 h", "value": "61.9 ± 3.4", "unit": "µM"}, {"measurement": "IC50", "setting": "[5]", "value": "61.9 to 91.7", "unit": "µM"}, {"measurement": "IC50", "setting": "[6]", "value": "89.2 ± 4.5", "unit": "µM"}, {"measurement": "IC50", "setting": "[7]", "value": "> 100", "unit": "µM"}, {"measurement": "IC50", "setting": "[8]", "value": "73.5 ± 4", "unit": "µM"}]}, {"compound": "O=C(/C=C/c1cccc(OCc2ccccc2)c1)c1ccccc1", "note": "[Compound 4h, (E)-3-(3-(Benzyloxy)phenyl)-1-phenylprop-2-en-1-one]", "values": [{"measurement": "IC50 at 24 h", "setting": "[3]", "value": "83.4 ± 4.2", "unit": "µM"}, {"measurement": "IC50", "setting": "[4]; Homo sapiens, MCF7, 24 h", "value": "42.1 ± 2.4", "unit": "µM"}, {"measurement": "IC50", "setting": "[5]", "value": "23.5 to 74.5", "unit": "µM"}, {"measurement": "IC50", "setting": "[6]", "value": "46.8 ± 2.7", "unit": "µM"}, {"measurement": "IC50", "setting": "[7]", "value": "25.6 ± 1.8", "unit": "µM"}, {"measurement": "IC50", "setting": "[8]", "value": "53.8 ± 3.3", "unit": "µM"}]}, {"compound": "COc1cccc(C(=O)/C=C/c2ccccc2)c1", "note": "[Compound 4j, (E)-1-(3-Methoxyphenyl)-3-phenylprop-2-en-1-one]", "values": [{"measurement": "IC50 at 24 h", "setting": "[3]", "value": "78.2 ± 3.9", "unit": "µM"}, {"measurement": "IC50", "setting": "[4]; Homo sapiens, MCF7, 24 h", "value": "18.8 ± 1.5", "unit": "µM"}, {"measurement": "IC50", "setting": "[6]", "value": "24.6 ± 1.7", "unit": "µM"}, {"measurement": "IC50", "setting": "[7]", "value": "34.9 ± 2.2", "unit": "µM"}, {"measurement": "IC50", "setting": "[8]", "value": "29.3 ± 1.9", "unit": "µM"}]}, {"compound": "O=C(/C=C/c1ccc(OCc2ccccc2)cc1)c1ccccc1", "note": "[Compound 4i, (E)-3-(4-(Benzyloxy)phenyl)-1-phenylprop-2-en-1-one]", "values": [{"measurement": "IC50 at 24 h", "setting": "[3]", "value": "> 100", "unit": "µM"}, {"measurement": "IC50", "setting": "[4]", "value": "85.5 ± 4.3", "unit": "µM"}, {"measurement": "IC50", "setting": "[4]; Homo sapiens, MCF7, 24 h", "value": "> 100", "unit": "µM"}, {"measurement": "IC50", "setting": "[6]", "value": "> 100", "unit": "µM"}, {"measurement": "IC50", "setting": "[7]", "value": "> 100", "unit": "µM"}, {"measurement": "IC50", "setting": "[8]", "value": "> 100", "unit": "µM"}]}]}
